Data on two molecules can be found in patent publication US20030083239A1, “Chemokine receptor CCR3 antagonists” (priority 1999, published 2003).

Data set [1] relates to human eosinophils. Format: cell-based. How it is done: Human eosinophils were prepared by isolation from the blood of donor individuals with high levels of circulating blood eosinophils (5-17%) by combining density gradient centrifugation and negative selection with anti-CD16 magnetic beads. Briefly, the granulocyte fraction from the Percoll centrifugation was incubated with CD16 micro beads (miniMACS™, separation unit) for 30 minutes. Cells were then passed through a MACS™ column (Miltenyi Biotec, Inc., Auburn, Calif.) and eosinophils were collected in the flow through. Eosinophil purity was >98% as determined by analysis of Diff-Quik™ (Baxter) stained cytocentrifugation preparations by light microscopy. Intracellular free calcium was measured using the fluorescent probe Fluo-3. Cell suspensions (10^7 cells/ml) were loaded with Fluo-3/AM (1 μM, 30 minutes at 37° C), washed, resuspended at 2×10^6 cells/ml in Hanks' balanced salt solution (HBSS) and their fluorescence monitored in a spectrofluorometer (SLM 8000, SLM-Aminco, Champagne, Ill., USA) (excitation and emission wavelengths, 500 and 530 nm, respectively) The internal calcium concentrations were calculated as described in Tsien et al. (J. Cell. Biol. 94: 3325-3334, 1982). Each assay was individually calibrated.

In a further data set the target is T1, CCR3 (Homo sapiens, UniProt P51677).
T1 construct: expressed in transfected cells; host or cells: 293 cells
T1 sequence (P51677 1-355): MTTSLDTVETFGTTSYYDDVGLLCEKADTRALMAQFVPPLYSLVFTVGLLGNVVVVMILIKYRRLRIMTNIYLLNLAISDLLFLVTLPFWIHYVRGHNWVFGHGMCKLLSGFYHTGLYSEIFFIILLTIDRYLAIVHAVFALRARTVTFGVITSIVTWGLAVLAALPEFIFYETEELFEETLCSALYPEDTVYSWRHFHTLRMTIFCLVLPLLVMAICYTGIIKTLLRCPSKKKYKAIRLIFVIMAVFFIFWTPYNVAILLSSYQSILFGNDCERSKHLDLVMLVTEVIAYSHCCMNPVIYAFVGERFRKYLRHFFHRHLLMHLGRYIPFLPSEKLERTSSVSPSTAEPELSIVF
Nature of the data set: Binding specificity, CCR3 transfected in 293 cells. Conditions: CCR3 transfected 293 cells; peptide at 10 μM (FIG. 4 legend). How it is done:
(§1) Chemokine binding to the target cells, human eosinophils and 293/CCR3 cells, was carried out using a modification of a method previously reported. Cells were washed once in PBS and resuspended in binding buffer (50 mM HEPES, 1 mM CaCl2, 5 mM MgCl2, and 0.5% BSA) at a concentration of 1×10^7/mL. Aliquots of 50 μL (5×10^5 cells) were dispensed into microfuge tubes, followed by the addition of cold and radiolabeled chemokines. The final reaction volume was 200 μL. Nonspecific binding was determined by incubating cells with radiolabeled chemokines in the presence of increasing amounts of (250-500 nM) of cold chemokine. After 60-min incubation, at room temperature, the cells were washed three times with 1 ml of binding buffer plus 0.5 M NaCl. Cell pellets were then counted. All experiments were carried out using duplicates and repeated at least three times. Curve fit was calculated by Kaleidagraph™ software (Synergy Software, Reading, Pa.). Inhibition of binding was assessed by the addition of test inhibitor compound at the indicated concentrations, and incubation for 30 min prior to addition of the chemokine as above.
(§2) The compound was used in the binding assay to compete with CXCR4, CXCR2, CCR2, and CCR3 transfected in 293 cells. […] The data are representative of three independent experiments.

The next data set deals with T2, CCR2 (Homo sapiens, UniProt P41597).
T2 construct: expressed in transfected cells; host or cells: 293 cells
T2 sequence (P41597 whole entry, species assumed): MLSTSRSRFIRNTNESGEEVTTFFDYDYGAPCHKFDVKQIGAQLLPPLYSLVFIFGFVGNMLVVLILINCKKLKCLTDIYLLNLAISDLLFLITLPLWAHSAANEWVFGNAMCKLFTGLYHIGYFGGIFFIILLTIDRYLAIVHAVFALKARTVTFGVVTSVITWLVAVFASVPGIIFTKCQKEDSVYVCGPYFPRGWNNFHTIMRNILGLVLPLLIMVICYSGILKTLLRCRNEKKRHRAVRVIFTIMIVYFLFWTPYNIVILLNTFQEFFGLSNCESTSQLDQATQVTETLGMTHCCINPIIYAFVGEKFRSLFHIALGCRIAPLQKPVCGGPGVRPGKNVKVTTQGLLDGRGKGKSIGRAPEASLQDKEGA
In words: Binding specificity, CCR2 transfected in 293 cells. Conditions: CCR2 transfected 293 cells; peptide at 10 μM (FIG. 4 legend). How it is done:
as §1, §2

In data set [2] the test system is human eosinophils. Nature of the data set: Cell viability by MTT incorporation. The following applies: after 24 hours. It counts as cell-based. The procedure: In FIG. 5, cell viability in presence of SC004411 was assayed with MTT incorporation. […] The data are representative of three independent experiments.
The subject of data set [3] is human eosinophils. It counts as cell-based. The procedure: Human eosinophils were prepared by isolation from the blood of donor individuals with high levels of circulating blood eosinophils (5-17%) by combining density gradient centrifugation and negative selection with anti-CD16 magnetic beads. Briefly, the granulocyte fraction from the Percoll centrifugation was incubated with CD16 micro beads (miniMACS™, separation unit) for 30 minutes. Cells were then passed through a MACS™ column (Miltenyi Biotec, Inc., Auburn, Calif.) and eosinophils were collected in the flow through. Eosinophil purity was >98% as determined by analysis of Diff-Quik™ (Baxter) stained cytocentrifugation preparations by light microscopy. Leukocyte chemotaxis was assessed on eosinophils, using a modification of a transendothelial assay. The endothelial cells used in this assay were the endothelial cell line, ECV 304, obtained from the European collection of Animal Cell Cultures (Porton Downs, Salisbury, U.K.). Endothelial cells were cultured on 6.5 mm diameter Transwell™ culture inserts (Costar Corp., Cambridge, Mass.) with 3.0 μm pore size. The assay media consisted of equal parts RPMI 1640 and M199 with 0.5% BSA. […] The cells that had migrated to the bottom chamber were counted using flow cytometry. […] Inhibitor potency was determined by comparison of cell numbers migrated to the bottom chamber, with or without inhibitor. […]
This is another data set of the same source.

The next data set addresses T3, CXCR2 (Homo sapiens, UniProt P25025).
T3 construct: expressed in transfected cells; host or cells: 293 cells
T3 sequence (P25025 1-360): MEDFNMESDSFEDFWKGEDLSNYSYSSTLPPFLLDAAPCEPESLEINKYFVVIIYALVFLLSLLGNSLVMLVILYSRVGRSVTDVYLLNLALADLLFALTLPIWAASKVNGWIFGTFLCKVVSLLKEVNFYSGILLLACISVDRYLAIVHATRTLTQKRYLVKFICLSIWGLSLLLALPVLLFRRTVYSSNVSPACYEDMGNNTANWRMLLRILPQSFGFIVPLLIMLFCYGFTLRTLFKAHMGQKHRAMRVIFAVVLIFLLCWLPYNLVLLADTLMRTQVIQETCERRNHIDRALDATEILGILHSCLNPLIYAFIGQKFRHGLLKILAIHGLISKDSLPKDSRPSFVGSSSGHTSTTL
In words: Binding specificity, CXCR2 transfected in 293 cells. The following applies: CXCR2 transfected 293 cells; peptide at 10 μM (FIG. 4 legend). The procedure:
as §1, §2

The subject of data set [4] is human eosinophils. Format: cell-based. The source holds these as a separate data set.
Data set [5] concerns human eosinophils. Nature of the data set: Cytotoxicity, lysis of 51Cr-labeled cells. It counts as cell-based. The following applies: cells cultured in presence of the peptide. The procedure: To exclude the possible contribution of cytotoxicity of the hexapeptides to the inhibition of eosinophil function, ^51Cr-labeled cells were cultured in presence of the peptide for the indicated time.

Another data set deals with T4, CXCR4 (Homo sapiens, UniProt P61073).
T4 construct: expressed in transfected cells; host or cells: 293 cells
T4 sequence (P61073 whole entry, species assumed): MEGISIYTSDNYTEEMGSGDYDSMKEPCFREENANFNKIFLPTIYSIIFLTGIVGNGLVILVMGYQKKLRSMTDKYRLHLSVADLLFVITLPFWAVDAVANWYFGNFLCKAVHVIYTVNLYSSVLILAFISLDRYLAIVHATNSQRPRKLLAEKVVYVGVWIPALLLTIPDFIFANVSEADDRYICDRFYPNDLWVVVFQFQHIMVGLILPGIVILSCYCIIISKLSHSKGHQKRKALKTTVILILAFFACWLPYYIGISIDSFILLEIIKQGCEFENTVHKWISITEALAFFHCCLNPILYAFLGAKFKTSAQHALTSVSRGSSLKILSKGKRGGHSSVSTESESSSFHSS
Nature of the data set: Binding specificity, CXCR4 transfected in 293 cells. The following applies: CXCR4 transfected 293 cells; peptide at 10 μM (FIG. 4 legend). The procedure: as §1, §2

Data set [6] addresses T5, CCR3 on human eosinophils (human, UniProt P51677 1-355).
T5 construct: whole, on cells; Endogenous receptor on purified human eosinophils; also called chemokine receptor CCR3; CCR3 receptor
T5 sequence (looked up): T1 sequence (P51677 1-355)
Nature of the data set: competition with 125I-eotaxin (0.3 nM) for CCR3 on human eosinophils, filtration radioligand assay.

The target in data set [7] is T5, CCR3 on human eosinophils. In words: cell-based or functional assay.

Where two headings read alike, the source gives them in different places. Ends that are not written are not given here. Peptide text beside a SMILES is read from it.

Broadly, the IC50 is the concentration that inhibits the measured activity by half. A higher IC50 goes with weaker potency. As to `CC(=O)N[C@@H](CS)C(=O)N[C@@H](CCCNC(=N)N)C(=O)N[C@@H](CS)C(=O)N[C@@H](C)C(=O)N[C@@H](C)C(=O)N[C@@H](CCCNC(=N)N)C(N)=O` [SC004411, CRCAAR] (Ac-CRCAAR-NH2; N-terminus and C-terminus assumed), the concentration for half-maximal inhibition (IC50) is roughly 40 µM in the data set with human eosinophils [1] and roughly 20 µM with human eosinophils [3]. In addition, the “inhibition of eotaxin-binding to CCR3” value on CCR3 is on record as “specifically inhibited”. Moreover, the “inhibition of binding to CCR2” value on CCR2 was “not”. In the data set with human eosinophils [2], the “concentration at which the compound starts to be toxic (MTT viability)” value is listed as “above 100 μM”. Further, the “inhibition of binding to CXCR2” value on CXCR2 is “not”. Besides, the “toxicity by Trypan Blue exclusion” value in the data set on human eosinophils [4] is reported as “not toxic”. In addition, the “cell lysis of 51Cr-labeled human eosinophils” value in the data set on human eosinophils [5] was “did not cause cell lysis”. In addition, the “inhibition of binding to CXCR4” value on CXCR4 is on record as “not”.

B1: hexamer peptide CRCAAR (SEQ ID NO: 1), peptide SC004411 (peptide)
peptide: CRCAAR
modifications: not fully specified; cysteine pairing not given here
notes: Synthetic hexapeptide; also called compound SC004411
B1 yielded an IC50 in data set [6] of roughly 40 µM. In data set [7], the “inhibition of eotaxin-induced calcium mobilization of human eosinophils (functional IC50)” value is roughly 40 µM and the “inhibition of eotaxin-induced chemotaxis of human eosinophils (functional IC50)” value is roughly 20 µM.
